{
  "source": "patent US7803399B2",
  "about": "“Delivery system for nucleic acids” (The Scripps Research Institute, priority 2001, dated 2010)",
  "tested_on": "αvβ3 positive M21 Melanoma cells",
  "assay": "Cell adhesion inhibition assay on vitronectin coated plates",
  "assay_type": "cell-based",
  "details": "Homo sapiens",
  "note": "Read-outs that look alike come from different tables or passages of the source.",
  "procedure": "Cell adhesion inhibition study was done on plates coated with vitronectin using human melonoma cell line M21. […] After about 1 hour incubation, the wells were washed, and the cells that adhered were stained with a solution of crystal violet and the optical density (OD) at about 590 nm was measured. The OD measured was proportional to the number of cells bound to the vitronectin plate and was plotted against the concentration of component 10 on the surface of the NPs in different formulations to calculate the IC50.\nFIG. 8 schematically depicts the cell adhesion assay wherein M21 human melanoma cells, which express αvβ3, were mixed with liposomes covalently conjugated to an integrin antagonist (ligand) or to ligand alone. The cells were then placed on vitronectin plates, washed and stained. The number of bound cells was then counted using a plate counter.",
  "data": [
    {"smiles": "NCCS(=O)(=O)N[C@@H](CNC(=O)c1ccc(OCCNC2=NCCCN2)cc1)C(=O)O", "note": "[Liposome 10, 4-[2-(3,4,5,6-Tetrahydropyrimidin-2-ylamino)ethyloxy]benzoyl-2-(S)-aminoethylsulfonamido-β-alanine]", "values": [
      {"measurement": "IC50", "setting": "FIG. 9, M21 cells on vitronectin, read-out: IC50 cell adhesion (FIG. 9), antagonist alone", "result": 500, "unit": "µM"},
      {"measurement": "IC50", "setting": "M21 cells on vitronectin coated plates, monomeric ligand, read-out: IC50 for inhibition of cell adhesion, free ligand", "result": 64, "unit": "µM"}
    ]}
  ]
}
